Measurements reported in ChEMBL document CHEMBL6115041, “Discovery of AIC263282, a Hepatitis B Virus Capsid Assembly Modulator Ready for Candidate Profiling” (J Med Chem, 2025).
≈ marks a conversion by molar mass, not a printed value.

Columns and labels:
Hepatitis B virus = assay: Antiviral activity against HBV infected in human HePAD38 cells measured after 6 days by qPCR analysis; type: functional, organism-based; details: HePAD38, 144 h
[1] = Kinetic solubility of compound; type: physicochemical
[2] = Metabolic stability in mouse liver microsome assessed as liver blood flow by HPLC analysis relative to control; type: ADME; details: microsomes
[3] = Cytotoxicity against human HePAD38 cells measured after 6 days by prestoblue reagent based analysis; type: toxicity, cell-based; details: time 6 day
[4] = target: Voltage-gated inwardly rectifying potassium channel KCNH2 (Homo sapiens, UniProt Q12809); assay: Inhibition of human ERG by patch clamp assay; type: toxicity
hERG = assay: Selectivity ratio of IC50 for human ERG to EC50 for Antiviral activity against HBV infected in human HePAD38 cells; type: toxicity, cell-based; details: HePAD38 cells infected with HBV (for the EC50), read-out: Ratio IC50/EC50

Sequence of Voltage-gated inwardly rectifying potassium channel KCNH2 (Q12809 whole entry): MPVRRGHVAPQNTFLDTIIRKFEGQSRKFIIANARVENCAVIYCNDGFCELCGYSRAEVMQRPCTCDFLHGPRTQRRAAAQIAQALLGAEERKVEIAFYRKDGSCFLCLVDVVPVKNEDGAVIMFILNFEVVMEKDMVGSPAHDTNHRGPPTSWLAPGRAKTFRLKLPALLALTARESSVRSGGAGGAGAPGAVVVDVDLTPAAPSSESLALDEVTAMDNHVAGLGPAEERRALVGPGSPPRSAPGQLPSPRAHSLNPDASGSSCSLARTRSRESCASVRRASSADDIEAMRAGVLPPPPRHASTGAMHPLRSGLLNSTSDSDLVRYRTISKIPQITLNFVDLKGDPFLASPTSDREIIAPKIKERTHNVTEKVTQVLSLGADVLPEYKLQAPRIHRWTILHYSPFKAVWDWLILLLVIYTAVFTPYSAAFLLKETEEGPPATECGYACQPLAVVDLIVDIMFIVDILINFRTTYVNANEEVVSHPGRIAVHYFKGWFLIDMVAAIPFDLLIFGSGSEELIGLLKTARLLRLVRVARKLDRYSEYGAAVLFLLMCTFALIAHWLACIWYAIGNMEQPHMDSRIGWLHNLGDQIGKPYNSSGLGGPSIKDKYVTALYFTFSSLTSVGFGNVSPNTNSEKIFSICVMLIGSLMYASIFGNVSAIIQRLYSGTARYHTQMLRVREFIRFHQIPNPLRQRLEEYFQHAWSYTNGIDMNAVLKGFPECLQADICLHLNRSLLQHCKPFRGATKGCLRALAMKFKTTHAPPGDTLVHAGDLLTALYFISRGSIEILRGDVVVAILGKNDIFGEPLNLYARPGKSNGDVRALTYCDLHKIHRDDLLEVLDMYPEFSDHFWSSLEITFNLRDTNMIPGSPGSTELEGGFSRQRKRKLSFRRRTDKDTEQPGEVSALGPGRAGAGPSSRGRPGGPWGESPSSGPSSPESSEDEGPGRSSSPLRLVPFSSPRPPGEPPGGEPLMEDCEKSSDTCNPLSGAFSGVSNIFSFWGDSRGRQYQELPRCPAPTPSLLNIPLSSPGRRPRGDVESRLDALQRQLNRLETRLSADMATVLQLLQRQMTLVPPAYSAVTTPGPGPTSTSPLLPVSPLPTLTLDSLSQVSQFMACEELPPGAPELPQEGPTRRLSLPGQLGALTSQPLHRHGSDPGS

SMILES	EC50 (Hepatitis B virus) [nM]	Kinetic_solubility [1]	other results
CCc1cc(F)cc2[nH]c(C(=O)N3CCN(C(=O)C(=O)NC4(C(F)(F)F)CCOCC4)CC3)cc12	2.4	Not_determined(Insoluble)	LBF [2]: 56%
C[C@@H](NC(=O)C(=O)N1CCN(C(=O)/C=C/c2c(N)cc(F)cc2F)CC1)C(F)(F)F	53	–	–
C[C@H]1CN(C(=O)C(=O)NC2(C)CCOCC2)CCN1C(=O)c1cc2cc(F)c(F)cc2[nH]1	60	–	–
Cc1cc(F)cc2[nH]c(C(=O)N3CCN(C(=O)C(=O)NC4(C(F)(F)F)CCOCC4)CC3)cc12	12	Not_determined(Insoluble)	–
CCc1cc(F)cc2[nH]c(C(=O)N3CCN(C(=O)C(=O)NC4(C)COC4)CC3)cc12	19	–	–
CCc1cc(F)cc2[nH]c(C(=O)N3CCN(C(=O)C(=O)NC4(C(F)(F)F)COC4)CC3)cc12	6.2	–	–
CCc1cc(F)cc2[nH]c(C(=O)N3CCN(C(=O)C(=O)NC4(c5ccc(C)nc5)COC4)C[C@H]3C)cc12	1.3	Not_determined(Insoluble)	LBF [2]: 93%
CCc1cc(F)cc2[nH]c(C(=O)N3CCN(C(=O)C(=O)NC4(c5cnn(C)c5)COC4)C[C@H]3C)cc12	2.4	–	–
O=C(NC1(C(F)(F)F)CCOCC1)C(=O)N1CCN(C(=O)c2cc3c(Cl)cc(F)cc3[nH]2)CC1	14	Not_determined(Insoluble)	–
CCc1cc(F)cc2[nH]c(C(=O)N3CCN(C(=O)C(=O)NC4(C)COC4)C[C@H]3C)cc12	3.8	–	–
CCc1cc(F)cc2[nH]c(C(=O)N3CCN(C(=O)C(=O)NC4(c5ccncc5F)COC4)C[C@H]3C)cc12	2.4	–	–
C[C@@H]1CN(C(=O)C(=O)NC2(C)CCOCC2)CCN1C(=O)c1cc2cc(F)c(F)cc2[nH]1	7.5	–	–
CCc1cc(F)cc2[nH]c(C(=O)N3CCN(C(=O)C(=O)NC4(C(F)(F)F)CCOCC4)C[C@H]3C)cc12	2.2	–	–
CCc1cc(F)cc2[nH]c(C(=O)N3CCN(C(=O)C(=O)NC4(c5ncccn5)COC4)C[C@H]3C)cc12	7	–	–
CCc1cc(F)cc2[nH]c(C(=O)N3CCN(C(=O)C(=O)NC4(c5nc(C)no5)COC4)C[C@H]3C)cc12	2.9	–	–
C[C@@H]1CN(C(=O)C(=O)NC2(C(F)(F)F)COC2)CCN1C(=O)c1cc2cc(F)c(F)cc2[nH]1	–	–	IC50 [4]: 9800 nM; selectivity ratio (hERG): 653
CCc1cc(F)cc2[nH]c(C(=O)N3CCN(C(=O)C(=O)NC4(c5cnc(OC)cn5)COC4)C[C@H]3C)cc12	2.5	–	–

More lines, main results first:

EC50 (Hepatitis B virus) [nM]	Kinetic_solubility [1]	SMILES	other results
240	Not_determined(Insoluble)	CC1(NC(=O)C(=O)N2CCN(C(=O)c3cc4cc(F)c(F)cc4[nH]3)CC2)CS(=O)(=O)C1	CC50 at 144 h [3]: > 10000 nM
18	–	O=C(NC1(C(F)(F)F)CCOCC1)C(=O)N1CCN(C(=O)c2cc3cc(F)c(F)cc3[nH]2)CC1	–
52	–	CC1(NC(=O)C(=O)N2CCN(C(=O)c3cc4cc(F)c(F)cc4[nH]3)CC2)COC1	–
13	–	Cc1noc(C2(NC(=O)C(=O)N3CCN(C(=O)c4cc5cc(F)c(F)cc5[nH]4)CC3)CC(F)(F)C2)n1	–
28	Not_determined(Insoluble)	Cc1noc(C2(NC(=O)C(=O)N3CCN(C(=O)c4cc5c(F)c(F)c(F)cc5[nH]4)CC3)CC(F)(F)C2)n1	–
160	Not_determined(Insoluble)	CN(C)C(=O)C1(NC(=O)C(=O)N2CCN(C(=O)c3cc4cc(F)c(F)cc4[nH]3)CC2)CC(F)(F)C1	CC50 at 144 h [3]: > 32000 nM
51	Not_determined(Insoluble)	Cc1noc(C2(NC(=O)C(=O)N3CCN(C(=O)c4cc5c(Cl)cccc5[nH]4)CC3)CC(F)(F)C2)n1	–
18	Not_determined(Insoluble)	Cc1noc(C2(NC(=O)C(=O)N3CCN(C(=O)c4cc5c(Cl)c(F)ccc5[nH]4)CC3)CC(F)(F)C2)n1	LBF [2]: 44%
34	–	CC1(NC(=O)C(=O)N2CCN(C(=O)c3cc4cc(F)c(F)cc4[nH]3)CC2)CCC1	–
23	Not_determined(Insoluble)	Cc1noc(C2(NC(=O)C(=O)N3CCN(C(=O)c4cc5c(F)c(F)ccc5[nH]4)CC3)CC(F)(F)C2)n1	–
26	Not_determined(Insoluble)	O=C(NC1(C(F)(F)F)CC1)C(=O)N1CCN(C(=O)c2cc3cc(F)c(F)cc3[nH]2)CC1	CC50 at 144 h [3]: > 10000 nM
24	–	O=C(NC1(c2ccccn2)CCC1)C(=O)N1CCN(C(=O)c2cc3cc(F)c(F)cc3[nH]2)CC1	solubility kinetic ([1]; read-out: Kinetic_solubility): 79 µM (≈ 36.9 µg/mL); LBF [2]: 43%; CC50 at 144 h [3]: > 10000 nM
30	–	CC1(NC(=O)C(=O)N2CCN(C(=O)c3cc4cc(F)c(F)cc4[nH]3)CC2)CCOCC1	–
92	Not_determined(Insoluble)	Cc1noc(C2(NC(=O)C(=O)N3CCN(C(=O)c4cc5ccc(Cl)cc5[nH]4)CC3)CC(F)(F)C2)n1	–
28	Not_determined(Insoluble)	Cc1noc(C2(NC(=O)C(=O)N3CCN(C(=O)c4cc5cc(F)c(Cl)cc5[nH]4)CC3)CC(F)(F)C2)n1	–
9.8	–	CC1(NC(=O)C(=O)N2CCN(C(=O)c3cc4cc(F)c(F)cc4[nH]3)CC2)CC(F)(F)C1	–
54	–	O=C(NC1(c2c[nH]nn2)CC(F)(F)C1)C(=O)N1CCN(C(=O)c2cc3cc(F)c(F)cc3[nH]2)CC1	–
7.5	–	O=C(NC1(c2cccnc2)CCC1)C(=O)N1CCN(C(=O)c2cc3cc(F)c(F)cc3[nH]2)CC1	–
140	Not_determined(Insoluble)	Cc1noc(C2(NC(=O)C(=O)N3CCN(C(=O)c4cc5ccccc5[nH]4)CC3)CC(F)(F)C2)n1	–
10	–	CCc1cc(F)cc2[nH]c(C(=O)N3CCN(C(=O)C(=O)NC4(c5nc(C)no5)CC(F)(F)C4)CC3)cc12	–
0.79	–	O=C(NC1(c2ccncc2)CCC1)C(=O)N1CCN(C(=O)c2cc3cc(F)c(F)cc3[nH]2)CC1	–
127	–	C[C@@H](NC(=O)C(=O)N1CCN(C(=O)c2cc3cc(F)c(F)cc3[nH]2)CC1)C(F)(F)F	–
